How the values were obtained:
[1] = target: T1, recombinant human Meningioma Expressed Antigen 5 (MGEA5), also referred to as O-GcNAcase (OGA) (Homo sapiens, UniProt O60502); assay: OGA biochemical assay (inhibition of FM-GlcNAc hydrolysis, fluorescence); conditions: FM-GlcNAc substrate; for Emax: read-out: Enzymatic Emax (%); for IC50: read-out: Enzymatic hOGA, pIC50 (converted)
T1 construct: Full length OGA enzyme was purchased at OnGene (cat #TP322411); purchased OnGene (so in the source)
T1 sequence (O60502 1-916): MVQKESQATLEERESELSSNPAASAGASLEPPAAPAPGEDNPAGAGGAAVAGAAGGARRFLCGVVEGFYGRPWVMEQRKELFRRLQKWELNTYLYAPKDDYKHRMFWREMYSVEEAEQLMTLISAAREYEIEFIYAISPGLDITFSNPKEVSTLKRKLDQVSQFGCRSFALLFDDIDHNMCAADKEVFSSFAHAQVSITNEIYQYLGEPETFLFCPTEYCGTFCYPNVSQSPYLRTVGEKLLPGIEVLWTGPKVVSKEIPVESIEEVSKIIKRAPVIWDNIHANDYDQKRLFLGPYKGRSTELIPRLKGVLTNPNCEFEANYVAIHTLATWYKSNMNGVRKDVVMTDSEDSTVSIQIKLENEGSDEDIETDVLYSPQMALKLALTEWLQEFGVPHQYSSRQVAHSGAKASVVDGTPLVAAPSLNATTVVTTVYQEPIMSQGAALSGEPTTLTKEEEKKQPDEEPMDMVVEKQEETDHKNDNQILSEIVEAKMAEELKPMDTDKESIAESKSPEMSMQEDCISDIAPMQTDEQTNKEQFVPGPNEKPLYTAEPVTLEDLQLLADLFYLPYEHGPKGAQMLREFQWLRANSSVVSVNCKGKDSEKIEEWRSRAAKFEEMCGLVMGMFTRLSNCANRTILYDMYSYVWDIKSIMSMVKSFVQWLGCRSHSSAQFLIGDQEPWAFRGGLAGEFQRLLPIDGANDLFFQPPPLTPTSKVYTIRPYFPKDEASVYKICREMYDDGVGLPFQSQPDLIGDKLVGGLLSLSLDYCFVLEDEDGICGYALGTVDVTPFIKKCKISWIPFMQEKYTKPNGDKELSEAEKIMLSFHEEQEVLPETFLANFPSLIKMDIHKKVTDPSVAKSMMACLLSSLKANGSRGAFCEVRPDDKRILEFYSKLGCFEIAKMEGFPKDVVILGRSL
In short: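 Full-length recombinant human OGA (2 nM) pre-incubated 60 min with compound, then FM-GlcNAc (100 uM final) added in 200 mM citrate/phosphate pH 7.2 with 0.005% Tween-20; 6 h at room temperature, stopped with pH 11.0 carbonate. Fluorescein read at ex 485/em 538 nm; IC50 and Hill coefficient from curve fit against no-inhibitor and saturating-standard controls.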

[2] = target: T2, OGA (Homo sapiens, UniProt O60502); assay: OGA cellular assay (ICC detection of O-GlcNAcylated proteins in HEK293 cells inducible for P301L mutant human Tau); format: cell-based; conditions: 6 hours incubation; for Emax: HEK293, HEK293 cells inducible for P301L mutant human Tau; for Emax / Cellular Emax (%): maximum = Thiamet G 200 uM; for EC50 / Cellular hOGA; pEC50 / Cellular Emax (%): HEK293 cells inducible for P301L mutant human Tau; for EC50: read-out: Cellular hOGA, pEC50 (converted)
T2 construct: endogenous in cells; host or cells: HEK293 cells inducible for P301L mutant human Tau (isoform 2N4R)
T2 sequence (O60502 1-916): T1 sequence (O60502 1-916)
Procedure: HEK293 cells inducible for P301L mutant human Tau (isoform 2N4R) were established at Janssen. Thiamet-G was used for both plate validation (high control) and as reference compound (reference EC50 assay validation). OGA inhibition is evaluated through the immunocytochemical (ICC) detection of O-GlcNAcylated proteins by the use of a monoclonal antibody (CTD110.6; Cell Signaling, #9875) detecting O-GlcNAcylated residues as previously described (Dorfmueller et al. 2010 Chemistry & biology, 17:1250). Inhibition of OGA will result in an increase of O-GlcNAcylated protein levels resulting in an increased signal in the experiment. Cell nuclei are stained with Hoechst to give a cell culture quality control and a rough estimate of immediate compounds toxicity, if any. ICC pictures are imaged with a Perkin Elmer Opera Phenix plate microscope and quantified with the provided software Perkin Elmer Harmony 4.1.
Cells were propagated in DMEM high Glucose (Sigma, #D5796) following standard procedures. 2 days before the cell assay cells are split, counted and seeded in Poly-D-Lysine (PDL) coated 96-wells (Greiner, #655946) plate at a cell density of 12,000 cells per cm^2 (4,000 cells per well) in 100 μl of Assay Medium (Low Glucose medium is used to reduce basal levels of GlcNAcylation) (Park et al. 2014 The Journal of biological chemistry 289:13519). At the day of compound test medium from assay plates was removed and replenished with 90 μl of fresh Assay Medium. 10 μl of compounds at a 10 fold final concentration were added to the wells. Plates were centrifuged shortly before incubation in the cell incubator for 6 hours. DMSO concentration was set to 0.2%. Medium is discarded by applying vacuum. For staining of cells medium was removed and cells washed once with 100 μl D-PBS (Sigma, #D8537). From next step onwards unless other stated assay volume was always 50 μl and incubation was performed without agitation and at room temperature. Cells were fixed in 50 μl of a 4% paraformaldehyde (PFA, Alpha aesar, #043368) PBS solution for 15 minutes at room temperature. […] Before analysis samples were washed 2 times manually for 5 minutes in ICC base buffer.
Imaging is performed using Perkin Elmer Phenix Opera using a water 20×objective and recording 9 fields per well. Intensity readout at 488 nm is used as a measure of O-GlcNAcylation level of total proteins in wells. To assess potential toxicity of compounds nuclei were counted using the Hoechst staining. IC50-values are calculated using parametric non-linear regression model fitting. As a maximum inhibition Thiamet G at a 200 uM concentration is present on each plate. In addition, a concentration response of Thiamet G is calculated on each plate.

SMILES | Enzymatic Emax (%) [1] [%] | Emax [2] [%] | EC50 [2] [nM] | Emax [1] [%] | IC50 [1] [nM] | Enzymatic hOGA; pIC50 [1] | Cellular hOGA; pEC50 [2] | Cellular Emax (%) [2] [%] | Cellular Emax (%) ([2]; listed as 118) | Enzymatic Emax (%) ([1]; listed as 76) | Cellular Emax (%) ([2]; listed as 76)
CCOc1cc(CN2CCC[C@H](Cc3cc(C)nc(C)c3)C2)n(C)n1 [Product 162] | 36 | -6 | > 1000 | – | – | – | – | – | – | – | –
CC(=O)Nc1nc(C(C)N2CCC[C@H](Cc3cc(C)nc(C)c3)C2)c[nH]1 (mixture of isomers) [Product 136] | – | 12 | > 1000 | 102 | 110 | – | – | – | – | – | –
Cc1cc(C[C@H]2CCCN(C(C)c3cc(C4CC4)[nH]n3)C2)cc(C)n1 (mixture of isomers) [Product 21] | – | 59 | 468 | 101 | 24.5 | – | – | – | – | – | –
CC(=O)Nc1ccc(C(C)N2CCC[C@H](Cc3cc(C)nc(C)c3)C2)s1 (mixture of isomers) [Product 134] | – | 59 | 240 | 101 | 4.68 | – | – | – | – | – | –
COc1cccc([C@H](C)N2CCC[C@H](Cc3cc(C)nc(C)c3)C2)n1 [Product 47] | 102 | – | – | – | – | 7.28 | 6.29 | 67 | – | – | –
COc1cncc(C(C)N2CCC[C@H](Cc3cc(C)nc(C)c3)C2)c1 (mixture of isomers) [Product 43] | – | 53 | 933 | 101 | 38 | – | – | – | – | – | –
CC(=O)Nc1ccc(CN2CCC[C@H](Cc3cc(C)nc(C)c3)C2)s1 [Product 28] | – | 75 | 309 | 100 | 19.1 | – | – | – | – | – | –
CC(=O)Nc1cc(CN2CCC[C@H](Cc3cc(C)nc(C)c3)C2)n[nH]1 [Product 1] | – | 56 | 692 | 101 | 21.4 | – | – | – | – | – | –
CCOc1cncc(C(C)N2CCC[C@H](Cc3cc(C)nc(C)c3)C2)c1 (mixture of isomers) [Product 44] | – | 41 | > 1000 | 100 | 26.9 | – | – | – | – | – | –
CC(=O)Nc1cc([C@H](C)N2CCC[C@H](Cc3cc(C)nc(C)c3)C2)n[nH]1 [Product 5] | 104 | – | – | – | – | 8.91 | 7.44 | 80 | – | – | –
Cc1cc(C[C@H]2CCCN(Cc3cc(C4CC4)[nH]n3)C2)cc(C)n1 [Product 20] | – | 11 | > 1000 | 96 | 851 | – | – | – | – | – | –
CCOc1nc(CN2CCC[C@H](Cc3cc(C)nc(C)c3)C2)c[nH]1 [Product 23] | – | 70 | 427 | 102 | 60.3 | – | – | – | – | – | –
CCC(=O)Nc1cncc(C(C)N2CCC[C@H](Cc3cc(C)nc(C)c3)C2)c1 (mixture of isomers) [Product 38] | – | 3 | > 1000 | 99 | 70.8 | – | – | – | – | – | –
CC(=O)Nc1cnc(CN2CCC[C@H](Cc3cc(C)nc(C)c3)C2)cn1 [Product 63] | – | 25 | > 1000 | 93 | 1200 | – | – | – | – | – | –
COCc1cc(C(C)N2CCC[C@H](Cc3cc(C)nc(C)c3)C2)n[nH]1 (stereo partly drawn) [Product 19] | – | 42 | > 1000 | 101 | 43.7 | – | – | – | – | – | –
CC(=O)Nc1cc(C(C)N2CCCC(Oc3cc(C)nc(C)c3)C2)n[nH]1 (stereo not drawn) [Product 80] | – | 7 | > 1000 | 102 | 102 | – | – | – | – | – | –
CCOc1cnc(C(C)N2CCC[C@H](Cc3cc(C)nc(C)c3)C2)o1 (mixture of isomers) [Product 30] | – | 60 | 490 | 101 | 10.2 | – | – | – | – | – | –

The next lines start with the values.

Enzymatic Emax (%) [1] [%] | Emax [2] [%] | EC50 [2] [nM] | Emax [1] [%] | IC50 [1] [nM] | Enzymatic hOGA; pIC50 [1] | Cellular hOGA; pEC50 [2] | Cellular Emax (%) [2] [%] | Cellular Emax (%) ([2]; listed as 118) | Enzymatic Emax (%) ([1]; listed as 76) | Cellular Emax (%) ([2]; listed as 76) | SMILES
– | 48 | 676 | 102 | 35.5 | – | – | – | – | – | – | COc1ccc(F)c(C(C)N2CCCC(c3cc(C)nc(C)c3)C2)n1 (stereo not drawn) [Product 74]
– | 57 | 525 | 101 | 52.5 | – | – | – | – | – | – | CC(=O)Nc1cc(C(C)N2CCC[C@H](Cc3cc(C)nc(C(F)(F)F)c3)C2)n[nH]1 (mixture of isomers) [Product 70]
– | – | 219 | 99 | 87.1 | – | – | – | 82 | – | – | COc1cc(C[C@H]2CCCN(C(C)c3nc(OC)ccc3F)C2)cc(C)n1 (stereo partly drawn) [Product 118]
– | – | > 1000 | – | 52.5 | – | – | – | – | 101 | 30 | COc1cc(C[C@H]2CCCN(C(C)c3nc(OC)ccc3F)C2)cc(C)n1 (stereo partly drawn) [Product 76]
– | 6 | > 1000 | 97 | 891 | – | – | – | – | – | – | COc1ccc(F)c(C(C)N2CCCC(Oc3cc(C)nc(C(F)(F)F)c3)C2)n1 (stereo not drawn) [Product 82]
101 | 49 | 955 | – | 14.8 | – | – | – | – | – | – | COc1ccc(F)c(C(C)N2CCC[C@H](Cc3cc(C)nc(C(F)(F)F)c3)C2)n1 (stereo partly drawn) [Product 77]
– | 8 | > 1000 | 104 | 43.7 | – | – | – | – | – | – | COc1cc(C[C@H]2CCCN(C(C)c3nc(OC)ccc3F)C2)cc(C(F)(F)F)n1 (mixture of isomers) [Product 79]
– | 10 | > 1000 | 97 | 912 | – | – | – | – | – | – | COc1ccc(F)c(C(C)N2CC[C@H](Cc3cc(C)nc(C)c3)C2)n1 (mixture of isomers) [Product 100]
– | 79 | 117 | 102 | 12.3 | – | – | – | – | – | – | COc1cc(NC[C@H]2CCCN(C(C)c3nc(OC)ccc3F)C2)cc(C)n1 (mixture of isomers) [Product 90]
– | 23 | > 1000 | 104 | 13.5 | – | – | – | – | – | – | COc1ccc(F)c(C(C)N2CCCC(CNc3cc(C)nc(C(F)(F)F)c3)C2)n1 (stereo not drawn) [Product 96]
103 | – | – | – | – | 7.8 | <6 | 44 | – | – | – | COc1cccc([C@H](C)N2CCC[C@@H](CNc3cc(C)nc(C(F)(F)F)c3)C2)n1 [Product 95]
